# Measured values from patent US9102678B2, “Compounds and methods for inhibiting mitotic progression” (Millennium Pharmaceuticals, Inc., priority 2004, dated 2015).
# Molecular target: T1, recombinant murine Aurora A enzyme (Mus musculus, UniProt P97477)
# T1 construct: hexahistidine (His6) (N); made in house; host or cells: insect cells, baculovirus (Bac-to-Bac, Invitrogen)
# Assay: Aurora A DELFIA Kinase Assay
# Format: biochemical
# Settings: mouse Aurora A, 250 μM ATP; threshold less than or equal to 100 nM; read-out: IC50
# Excerpt: Recombinant mouse Aurora A with an amino-terminus hexahistidine tag (His-Aurora A) was expressed using a standard baculovirus vector and insect cell expression system (Bac-to-Bac®, Invitrogen).
# Soluble, recombinant mouse Aurora A was purified from insect cells using Ni-NTA agarose (Qiagen) as described by the manufacturer and further purified over an S75 size exclusion column (Amersham Pharmacia Biotech).
# Aurora A DELFIA® Kinase Assay
# The enzymatic reaction mixture, with and without Aurora inhibitors, was incubated for 15 minutes at room temperature before termination with 100 μL of stop buffer (1% BSA, 0.05% Surfact-AMPS-20, and 100 mM EDTA). A total of 100 μL of the enzyme reaction mixture was transferred to wells of a Neutravidin-coated 96-well plate (Pierce) and incubated at room temperature for 30 minutes. The wells were washed with wash buffer (25 mM Tris, 150 mM sodium chloride, and 0.1% Tween 20) and incubated for 1 hour with 100 μL of antibody reaction mixture containing 1% BSA, 0.05% Surfact-AMPS-20, anti-phospho-PKA rabbit polyclonal antibody (1:2000, New England Biolabs), and europium labeled anti-rabbit IgG (1:2000, Perkin Elmer). The wells were washed and then the bound europium was liberated using 100 μL of Enhancement Solution (Perkin Elmer). Quantification of europium was done using a Wallac™ EnVision (Perkin Elmer).
# T1 sequence (P97477 whole entry): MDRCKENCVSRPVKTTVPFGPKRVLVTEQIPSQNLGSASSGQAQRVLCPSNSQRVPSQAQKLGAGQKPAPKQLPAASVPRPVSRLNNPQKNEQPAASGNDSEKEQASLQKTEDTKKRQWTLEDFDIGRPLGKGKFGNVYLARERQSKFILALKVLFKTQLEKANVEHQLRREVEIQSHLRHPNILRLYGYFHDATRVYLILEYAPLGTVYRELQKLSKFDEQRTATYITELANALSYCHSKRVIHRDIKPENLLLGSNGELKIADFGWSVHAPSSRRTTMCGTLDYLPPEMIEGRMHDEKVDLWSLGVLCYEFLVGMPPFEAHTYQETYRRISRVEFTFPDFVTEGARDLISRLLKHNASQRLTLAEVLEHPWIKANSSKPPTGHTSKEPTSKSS
row,IC50 [nM],SMILES
1,≤ 100,COc1cccc(F)c1C1=NCc2cnc(Nc3ccc(C(=O)N4CC(N)C4)cc3)nc2-c2ccc(Cl)cc21 [Compound I-286]
2,≤ 100,"C[C@@H]1CNCCN1C(=O)c1ccc(Nc2ncc3c(n2)-c2ccc(Cl)cc2C(c2c(F)cccc2F)=NC3)cc1 [Compound I-366, 9-chloro-7-(2,6-difluorophenyl)-N-(4-{[(2R)-2-methylpiperazin-1-yl]carbonyl}phenyl)-5H-pyrimido[5,4-d][2]benzazepin-2-amine]"
3,≤ 100,"O=C(O)Cc1cccc(Nc2ncc3c(n2)-c2ccc(Cl)cc2C(c2ccccc2Cl)=NC3)c1 [Compound I-65, {3-[9-Chloro-7-(2-chloro-phenyl)-5H-benzo[c]pyrimido[4,5-e]azepin-2-ylamino]-phenyl}-acetic acid]"
4,≤ 100,"O=C(c1ccc(Nc2ncc3c(n2)-c2ccc(Cl)cc2C(c2ccccc2F)=NC3)cc1)N1CCN(CCN2CCOCC2)CC1 [Compound I-189, {4-[9-Chloro-7-(2-fluoro-phenyl)-5H-benzo[c]pyrimido[4,5-e]azepin-2-ylamino]-phenyl}-[4-(2-morpholin-4-yl-ethyl)-piperazin-1-yl]-methanone]"
5,≤ 100,"CC1CN(C(=O)c2ccc(Nc3ncc4c(n3)-c3ccc(Cl)cc3C(c3ccccc3F)=NC4)cc2)CCN1 (stereo not shown) [Compound I-113, {4-[9-Chloro-7-(2-fluoro-phenyl)-5H-benzo[c]pyrimido[4,5-e]azepin-2-ylamino]-phenyl}-(3-methyl-piperazin-1-yl)-methanone]"
6,≤ 100,"CNC1CCN(C(=O)c2coc(Nc3ncc4c(n3)-c3ccc(Cl)cc3C(c3c(F)cccc3F)=NC4)n2)C1 (stereo not shown) [Compound I-375, 9-chloro-7-(2,6-difluorophenyl)-N-(4-{[3-(methylamino)pyrrolidin-1-yl]carbonyl}-1,3-oxazol-2-yl)-5H-pyrimido[5,4-d][2]benzazepin-2-amine]"
7,≤ 100,N=C(c1ccc(Nc2ncc3c(n2)-c2ccc(Cl)cc2C(c2c(F)cccc2F)=NC3)cc1)N1CCC(N)C1 (stereo not shown) [Compound I-284]
8,≤ 100,"CNC1CCN(C(=O)c2cc(Nc3ncc4c(n3)-c3ccc(Cl)cc3C(c3c(F)cccc3F)=NC4)ccc2Cl)C1 (stereo not shown) [Compound I-281, 9-chloro-N-(4-chloro-3-{[3-(methylamino)pyrrolidin-1-yl]carbonyl}phenyl)-7-(2,6-difluorophenyl)-5H-pyrimido[5,4-d][2]benzazepin-2-amine]"
9,≤ 100,"O=C(Nc1ccc(Nc2ncc3c(n2)-c2ccc(Cl)cc2C(c2c(F)cccc2F)=NC3)cc1)C1CCNCC1 [Compound I-319, N-(4-{[9-chloro-7-(2,6-difluorophenyl)-5H-pyrimido[5,4-d][2]benzazepin-2-yl]amino}phenyl)piperidine-4-carboxamide]"
10,≤ 100,"COc1cccc(F)c1C1=NCc2cnc(Nc3ccc(C(=O)N4CCN(C)CC4)cc3)nc2-c2ccc(Cl)cc21 [Compound I-233, 9-chloro-7-(2-fluoro-6-methoxyphenyl)-N-{4-[(4-methylpiperazin-1-yl)carbonyl]phenyl}-5H-pyrimido[5,4-d][2]benzazepin-2-amine]"
11,≤ 100,"CN(C)C1CN(C(=O)c2ccc(Nc3ncc4c(n3)-c3ccc(Cl)cc3C(c3ccccc3F)=NC4)cc2)C1 [Compound I-98, {4-[9-Chloro-7-(2-fluoro-phenyl)-5H-benzo[c]pyrimido[4,5-e]azepin-2-ylamino]-phenyl}-(3-dimethylamino-azetidin-1-yl)-methanone]"
12,≤ 100,"O=C(O)c1ccc(Nc2ncc3c(n2)-c2ccc(Cl)cc2C(c2ccccc2F)=NC3)cc1 [Compound I-52, 4-[9-Chloro-7-(2-fluoro-phenyl)-5H-benzo[c]pyrimido[4,5-e]azepin-2-ylamino]-benzoic acid]"
13,≤ 100,"CN(C)CCCN(C)C(=O)c1ccc(Nc2ncc3c(n2)-c2ccc(Cl)cc2C(c2c(F)cccc2F)=NC3)cc1 [Compound I-185, 4-[9-Chloro-7-(2,6-difluoro-phenyl)-5H-benzo[c]pyrimido[4,5-e]azepin-2-ylamino]-N-(3-dimethylamino-propyl)-N-methyl-benzamide]"
14,≤ 100,"CNC(=O)C1(N)CCN(C(=O)c2ccc(Nc3ncc4c(n3)-c3ccc(Cl)cc3C(c3c(F)cccc3F)=NC4)cc2)CC1 [Compound I-341, 4-amino-1-(4-{[9-chloro-7-(2,6-difluorophenyl)-5H-pyrimido[5,4-d][2]benzazepin-2-yl]amino}benzoyl)-N-methylpiperidine-4-carboxamide]"
15,≤ 100,"CNC1CN(C(=O)c2ccc(Nc3ncc4c(n3)-c3ccc(Cl)cc3C(c3ccccc3C(F)(F)F)=NC4)cc2)C1 [Compound I-297, 9-chloro-N-(4-{[3-(methylamino)azetidin-1-yl]carbonyl}phenyl)-7-[2-(trifluoromethyl)phenyl]-5H-pyrimido[5,4-d][2]benzazepin-2-amine]"
16,≤ 100,"CC1CN(C(=O)c2ccc(Nc3ncc4c(n3)-c3ccc(Cl)cc3C(c3ccccc3F)=NC4)cc2)CC(C)N1 (stereo not shown) [Compound I-111, {4-[9-Chloro-7-(2-fluoro-phenyl)-5H-benzo[c]pyrimido[4,5-e]azepin-2-ylamino]-phenyl}-(3,5-dimethyl-piperazin-1-yl)-methanone]"
17,≤ 100,"CN(C)CCN(C)C(=O)c1ccc(Nc2ncc3c(n2)-c2ccc(Cl)cc2C(c2c(F)cccc2F)=NC3)cc1 [Compound I-247, 4-{[9-chloro-7-(2,6-difluorophenyl)-5H-pyrimido[5,4-d][2]benzazepin-2-yl]amino}-N-[2-(dimethylamino)ethyl]-N-methylbenzamide]"
18,≤ 100,"CNCCCNC(=O)c1ccc(Nc2ncc3c(n2)-c2ccc(Cl)cc2C(c2ccccc2F)=NC3)cc1 [Compound I-130, 4-[9-Chloro-7-(2-fluoro-phenyl)-5H-benzo[c]pyrimido[4,5-e]azepin-2-ylamino]-N-(3-methylamino-propyl)-benzamide]"
19,≤ 100,"O=C(O)c1ccc(Nc2ncc3c(n2)-c2ccc(Br)cc2C(c2c(F)cccc2F)=NC3)cc1 [Compound I-274, 4-{[9-bromo-7-(2,6-difluorophenyl)-5H-pyrimido[5,4-d][2]benzazepin-2-yl]amino}benzoic acid]"
20,≤ 100,"CN(C)C1CCN(C(=N)c2ccc(Nc3ncc4c(n3)-c3ccc(Cl)cc3C(c3c(F)cccc3F)=NC4)cc2)CC1 [Compound I-244, 9-chloro-7-(2,6-difluorophenyl)-N-{4-[[4-(dimethylamino)piperidin-1-yl](imino)methyl]phenyl}-5H-pyrimido[5,4-d][2]benzazepin-2-amine]"
21,≤ 100,"CN(C)C1CCN(C(=O)c2cccc(Nc3ncc4c(n3)-c3ccc(Cl)cc3C(c3c(F)cccc3F)=NC4)c2)C1 (stereo not shown) [Compound I-206, 9-chloro-7-(2,6-difluorophenyl)-N-(3-{[3-(dimethylamino)pyrrolidin-1-yl]carbonyl}phenyl)-5H-pyrimido[5,4-d][2]benzazepin-2-amine]"
22,≤ 100,"CN(CCN)C(=O)c1ccc(Nc2ncc3c(n2)-c2ccc(Cl)cc2C(c2ccccc2F)=NC3)cc1 [Compound I-2, N-(2-Amino-ethyl)-4-[9-chloro-7-(2-fluoro-phenyl)-5H-benzo[c]pyrimido[4,5-e]azepin-2-ylamino]-N-methyl-benzamide]"
23,≤ 100,"CN(C)C1CCN(C(=N)c2ccc(Nc3ncc4c(n3)-c3ccc(Cl)cc3C(c3c(F)cccc3F)=NC4)cc2)C1 (stereo not shown) [Compound I-250, 9-chloro-7-(2,6-difluorophenyl)-N-{4-[[3-(dimethylamino)pyrrolidin-1-yl](imino)methyl]phenyl}-5H-pyrimido[5,4-d][2]benzazepin-2-amine]"
24,≤ 100,"CNCCN(C)C(=O)c1ccc(Nc2ncc3c(n2)-c2ccc(Cl)cc2C(c2c(F)cccc2F)=NC3)cc1 [Compound I-246, 4-{[9-chloro-7-(2,6-difluorophenyl)-5H-pyrimido[5,4-d][2]benzazepin-2-yl]amino}-N-methyl-N-[2-(methylamino)ethyl]benzamide]"
25,≤ 100,"CNC1CCN(C(=O)c2cc(Nc3ncc4c(n3)-c3ccc(Cl)cc3C(c3c(F)cccc3F)=NC4)ccc2Cl)CC1 [Compound I-282, 9-chloro-N-(4-chloro-3-{[4-(methylamino)piperidin-1-yl]carbonyl}phenyl)-7-(2,6-difluorophenyl)-5H-pyrimido[5,4-d][2]benzazepin-2-amine]"
26,≤ 100,"CN(C)C1CCN(C(=O)c2ccc(Nc3ncc4c(n3)-c3ccc(Cl)cc3C(c3c(F)cccc3F)=NC4)cc2)CC1 [Compound I-183, {4-[9-Chloro-7-(2,6-difluoro-phenyl)-5H-benzo[c]pyrimido[4,5-e]azepin-2-ylamino]-phenyl}-(4-dimethylamino-piperidin-1-yl)-methanone]"
27,≤ 100,"CN(CCCN)C(=O)c1ccc(Nc2ncc3c(n2)-c2ccc(Cl)cc2C(c2c(F)cccc2F)=NC3)cc1 [Compound I-257, N-(3-aminopropyl)-4-{[9-chloro-7-(2,6-difluorophenyl)-5H-pyrimido[5,4-d][2]benzazepin-2-yl]amino}-N-methylbenzamide]"
28,≤ 100,"CC(=O)c1ccc(Nc2ncc3c(n2)-c2ccc(Cl)cc2C(c2c(F)cccc2F)=NC3)cc1 [Compound I-337, 1-(4-{[9-chloro-7-(2,6-difluorophenyl)-5H-pyrimido[5,4-d][2]benzazepin-2-yl]amino}phenyl)ethanone]"
